Laboratory results: patent US20120077883A1, “TREATMENT OF TINNITUS AND ASSOCIATED AUDITORY DYSFUNCTIONS” (priority 2009, published 2012)
Like-named read-outs stand apart in the source and are kept apart here.

Legend:
[1] = test system: subjects with tinnitus
Source text: Four selected outcome variables were used in this preliminary analysis: Global improvement (GI), Tinnitus Handicap Inventory (THI) and Tinnitus Impairment Questionnaire (TBF 12) questionnaires and Minimum Masking Levels (MML). The changes on the outcome variables were obtained by subtracting week 12's scores from the screening scores. The presence of a negative result means a decrease on values.
In Table 2 the changes on outcome variables are listed by Global Improvement (GI) classification, as follows: GI 1=much better; 2=better; 3=slightly better; 4=no change; 5=slightly worse; 6=worse; 7=much worse; THI: Tinnitus Handicap Inventory, TBF 12: Tinnitus Impairment Questionnaire; MML: minimal masking levels, measured in dB HL (Hearing Level).
Four different criteria were established to determine whether a subject responded or not to treatment (see Table 3).

[2] = test system: fibromyalgia patients; details: 10 to 40 mg over a 12 week period; cited from earlier work
[3] = Criteria 1: improvement on GI, 15 subjects
[4] = Criteria 2: Criteria 1 + decrease on THI
[5] = Criteria 3: Criteria 2 + decrease on TBF 12
[6] = Criteria 4: Criteria 3 + decrease on MML

## CN(C)CCC=C1c2ccccc2C=Cc2ccccc21 [Cyclobenzaprine]
[1]; 15 subjects, oral 15-30 mg/day
  Most frequent side effects: dry mouth and constipation
[1]; Criteria 1: improvement on GI
  Non responders %: 26.7%
  Non responders n: 4
[1]; [3]
  Responders %: 73.3%
  Responders n: 11
[1]; [4]
  Non responders %: 26.4%
  Non responders n: 4
  Responders %: 73.3%
  Responders n: 11
[1]; [5]
  Non responders %: 33.3%
  Non responders n: 5
  Responders %: 66.6%
  Responders n: 10
[1]; [6]
  Non responders %: 46.7%
  Non responders n: 7
  Responders %: 53.3%
  Responders n: 8
[1]; FIG. 1, 15 subjects
  Subjects Better or Much Better on GI: 8 subjects
[1]; common side effects like constipation and dry mouth
  Tolerability: tolerated well by most subjects
[1]; described by many patients
  Sleep and muscle relaxation: Improvement on sleep and muscle relaxation
[1]; human, in vivo
  Subjects with changes on tinnitus pitch: 5 out of 15 subjects
[1]; one subject, week 8
  Side effect that led one subject to interrupt the study: severe constipation
[1]; oral, 30 mg/day
  Results in tinnitus at a dosage of 30 mg/day: Excellent results
[1]; subject 3, intermittent tinnitus
  Tinnitus change noticed where MML was not possible to measure: change on intensity and less episodes
[1]; subjects 4, 8, 9, 10 and 11, FIGS. 2-6
  Progression of Minimum Masking Levels (MML) during the tests: progressive reduction
[1]; tested subjects
  Effect on tinnitus severity and tinnitus loudness: positive effect
[1]; weaned off after 12 weeks
  Tinnitus after treatment was weaned off: got worse in some patients
[2]
  Quality of sleep and pain score: significantly improved
  Total number of tender points and muscle tightness: reduction
